According to US20030133931A1 (priority 2001, published 2003):

Experiments:
[1] = biological target: guinea pig histamine H4 receptor (Cavia porcellus, UniProt Q91ZY3); experiment: biochemical
[2] = biological target: T1, human histamine H4 receptor (Homo sapiens, UniProt Q9H3N8); experiment: biochemical
[3] = biological target: rat histamine H4 receptor (Rattus norvegicus, UniProt Q91ZY1); experiment: biochemical
[4] = biological target: T1, human histamine H4 receptor; details: histamine 100 pM-100 uM; forskolin 3 uM; SK-N-MC cells
[5] = tested on: Zymosan Induced Peritonitis in Mice; details: for effect on PMN influx: H4 ANTAG #1 10 mg/kg, Imetit 5 mg/kg, thioperamide 5 mg/kg, 4 h after zymosan; for PMN (10^6 per mouse) Mean: group mean, s.c. at -15 min and +2 h (H4 ANTAG #1 10 mg/kg; Imetit, Thioperamide 5 mg/kg), lavage 4 h after zymosan
[6] = tested on: Croton Oil Induced Topical Inflammation in Mice; details: 6 h after croton oil
[7] = biological target: T1, human histamine H4 receptor; details: SK-N-MC or COS7 cells expressing human histamine H4 receptor

Chain of guinea pig histamine H4 receptor (Q91ZY3 1-389): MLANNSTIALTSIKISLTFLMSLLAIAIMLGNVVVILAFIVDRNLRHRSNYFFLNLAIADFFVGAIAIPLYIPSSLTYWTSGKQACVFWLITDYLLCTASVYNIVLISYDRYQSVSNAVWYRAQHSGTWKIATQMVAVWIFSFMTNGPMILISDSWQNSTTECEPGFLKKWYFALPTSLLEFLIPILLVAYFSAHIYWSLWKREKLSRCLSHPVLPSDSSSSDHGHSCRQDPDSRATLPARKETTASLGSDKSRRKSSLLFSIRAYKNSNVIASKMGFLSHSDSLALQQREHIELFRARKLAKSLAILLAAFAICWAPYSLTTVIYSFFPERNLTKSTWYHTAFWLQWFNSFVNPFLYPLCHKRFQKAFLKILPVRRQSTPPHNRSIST
Chain of rat histamine H4 receptor (Q91ZY1 whole entry): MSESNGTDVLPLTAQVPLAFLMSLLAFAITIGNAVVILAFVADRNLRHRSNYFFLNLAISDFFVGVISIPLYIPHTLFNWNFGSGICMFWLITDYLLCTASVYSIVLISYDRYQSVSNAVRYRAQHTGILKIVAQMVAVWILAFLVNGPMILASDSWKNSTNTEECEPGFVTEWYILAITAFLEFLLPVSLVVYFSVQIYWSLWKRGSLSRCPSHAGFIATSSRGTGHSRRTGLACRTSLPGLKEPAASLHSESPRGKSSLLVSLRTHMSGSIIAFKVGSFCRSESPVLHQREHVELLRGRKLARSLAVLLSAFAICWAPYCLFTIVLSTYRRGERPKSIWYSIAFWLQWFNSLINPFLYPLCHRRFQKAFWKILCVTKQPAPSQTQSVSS
T1 sequence (Q9H3N8 whole entry): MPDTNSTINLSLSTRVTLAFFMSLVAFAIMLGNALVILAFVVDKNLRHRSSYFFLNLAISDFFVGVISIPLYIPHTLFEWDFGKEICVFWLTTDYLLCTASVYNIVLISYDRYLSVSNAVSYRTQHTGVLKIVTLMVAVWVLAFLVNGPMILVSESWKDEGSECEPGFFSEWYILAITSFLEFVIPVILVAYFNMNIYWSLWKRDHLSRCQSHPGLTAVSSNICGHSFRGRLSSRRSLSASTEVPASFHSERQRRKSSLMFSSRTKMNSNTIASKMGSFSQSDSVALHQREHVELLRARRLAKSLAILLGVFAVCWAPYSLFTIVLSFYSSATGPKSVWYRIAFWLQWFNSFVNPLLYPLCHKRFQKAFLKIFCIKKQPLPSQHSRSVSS

Molecule	Ki [1] [nM]	Ki [2] [nM]	Ki [3] [nM]	other results
NC(=NCc1ccc(Cl)cc1)SCCCc1cnc[nH]1 [Clobenpropit]	3.6	4.9	63	
NCCc1c[nH]cn1 [Histamine]	27			activation of recombinant human histamine H4 receptor (decrease of forskolin-raised cAMP), words [4]: specifically activated
N=C(N)SCCc1cnc[nH]1 [Imetit]	30	1.3	6.8	effect on PMN influx [5]: inactive; PMN (10^6 per mouse) Mean [5]: 17.3 10^6 per mouse
COc1ccc2c(c1)c(CC(=O)O)c(C)n2C(=O)c1ccc(Cl)cc1 [Indomethacin]				Difference in ear thickness (×0.01 mm) Mean ([6]; group mean, s.c. ×3 (H4 ANTAG #1 10 mg/kg; Indomethacin 30 mg/kg)): 10.0 ×0.01 mm; % inhib (ear swelling) ([6]; vs vehicle, s.c. ×3): (−40%)
CNCCc1c[nH]cn1 [N-methylhistamine]	220	48	552	
S=C(NC1CCCCC1)N1CCC(c2cnc[nH]2)CC1 [Thioperamide]	83			effect on PMN influx [5]: significant inhibitory effect; PMN (10^6 per mouse) Mean [5]: 9.3 10^6 per mouse; % inhib (PMN) ([5]; vs PBS + zymosan, 4 h, doses as in Table 1, s.c.): (−46%)
^3H-histamine				^3H-histamine binding [7]: high affinity
